Source: patent US9278940B2, “Cyclic amines as bromodomain inhibitors” (Zenith Epigenetics Corp., priority 2012, dated 2016)
Where a name gives a salt, the structure may show the parent alone.

Columns and labels:
Brd4 bromodomain 1 = molecular target: T1, Brd4 bromodomain 1 (Homo sapiens, UniProt O60885); test: Inhibition of tetra-acetylated histone H4 binding to BET bromodomain (TR-FRET); parameters: key: Active: Compounds with an IC50 value less than 30 μM were deemed to be active.; Not Active: Compounds with an IC50 value less than 30 μM were deemed to be active; conditions: Brd4 bromodomain 1, tetra-acetylated histone H4 peptide
T1 construct: made in house; host or cells: E. coli BL21(DE3)
Experimental: Proteins were cloned and overexpressed with a N-terminal 6×His tag, then purified by nickel affinity followed by size exclusion chromatography. Briefly, E. coli BL21(DE3) cells were transformed with a recombinant expression vector encoding N-terminally Nickel affinity tagged bromodomains from Brd2, Brd3, Brd4. Cell cultures were incubated at 37° C. with shaking to the appropriate density and induced overnight with IPTG. The supernatant of lysed cells was loaded onto Ni-IDA column for purification. Eluted protein is pooled, concentrated and further purified by size exclusion chromatography. Fractions representing monomeric protein were pooled, concentrated, aliquoted, and frozen at −80° C. for use in subsequent experiments.
Binding of tetra-acetylated histone H4 and BET bromodomains was confirmed by a Time Resolved Fluorescence Resonance Energy Transfer (TR-FRET) method. N-terminally His-tagged bromodomains (200 nM) and biotinylated tetra-acetylated histone H4 peptide (25-50 nM, Millipore) were incubated in the presence of Europium Cryptate-labeled streptavidin (Cisbio Cat. #610SAKLB) and XL665-labeled monoclonal anti-His antibody (Cisbio Cat. #61HISXLB) in a white 96 well microtiter plate (Greiner). For inhibition assays, serially diluted test compound was added to these reactions in a 0.2% final concentration of DMSO. Final buffer concentrations were 30 mM HEPES pH 7.4, 30 mM NaCl, 0.3 mM CHAPS, 20 mM phosphate pH 7.0, 320 mM KF, 0.08% BSA). After 2 hours incubation at room temperature, the fluorescence by FRET was measured at 665 and 620 nm by a SynergyH4 plate reader (Biotek). The binding inhibitory activity was shown by a decrease in 665 nm fluorescence relative to 620 nm. IC50 values were determined from a dose response curve.

hIL-6 mRNA = test: Inhibition of hIL-6 mRNA transcription in LPS-stimulated U937 macrophages; format: cell-based, human; parameters: key: Active: Compounds with an IC50 value less than 30 μM are deemed to be active.; Not Active: Compounds with an IC50 value less than 30 μM are deemed to be active; conditions: U937 cells differentiated with PMA, 1 h pretreatment, LPS 3 h
Experimental: In this example, hIL-6 mRNA in tissue culture cells was quantitated to measure the transcriptional inhibition of hIL-6 when treated with a compound of the present disclosure.
A human leukemic monocyte lymphoma cell line (U937) was plated (3.2×10^4 cells per well) in a 96-well plate in […] RPMI-1640 containing 10% FBS and penicillin/streptomycin, and differentiated into macrophages for 3 days in 60 ng/mL PMA ([…]) at 37° C. in 5% CO2 prior to the addition of the compound of interest. The cells were pretreated for 1 h with the test compound prior to stimulation with 1 ug/mL lipopolysaccharide from Escherichia coli. The cells were incubated at 37-C for 3 h before the cells were harvested. At time of harvest, the spent media was removed from the cells and the cells were rinsed in 200 μL PBS. Cell lysis solution (70 μL) was added the cells in each well and incubated for 5-10 min at room temperature, to allow for complete cell lysis and detachment. mRNA was then prepared using the “mRNA Catcher PLUS plate” (Invitrogen), according to the protocol supplied. After the last wash, as much wash buffer as possible was aspirated without allowing the wells to dry. Elution buffer (E3, 70 μL) was then added to each well. mRNA was then eluted by incubating the mRNA Catcher PLUS plate with Elution Buffer for 5 min at 68° C. and then immediately placing the plate on ice.
The eluted mRNA isolated was then used in a one-step quantitative real-time PCR reaction, using components of the Ultra Sense Kit together with Applied Biosystems primer-probe mixes. Real-time PCR data was analyzed, normalizing the Ct values for hIL-6 to an internal control, prior to determining the fold induction of each unknown sample, relative to the control.

c-myc = test: Inhibition of c-myc expression (mRNA, real-time PCR) in MV4-11 cells; format: cell-based; parameters: key: Active: Compounds with an IC50 value less than 30 μM were deemed to be active.; Not Active: Compounds with an IC50 value less than 30 μM were deemed to be active; conditions: Human AML MV4-11 cells, 3 hours
Experimental: MV4-11 cells (2.5×10^4 cells) were plated in 96 well U-bottom plates with test compound or DMSO (0.1%), and incubated for 3 hours at 37° C. Cells were then harvested by centrifugation, lysed, and mRNA was isolated using the mRNA catcher plus kit (Invitrogen). Reverse transcription of the mRNA and duplex amplification of the c-myc and cyclophilin cDNAs was performed using the RNA Ultrasense kit (Invitrogen) and a ViiA7 real-time PCR machine (Applied Biosystems). IC50 values were determined from a dose response curve.

Human AML MV-4-11 cells = test: Inhibition of cell proliferation in MV4-11 cells; format: cell-based; parameters: key: Active: Compounds with an IC50 value less than 30 μM are deemed to be active.; Not Active: Compounds with an IC50 value less than 30 μM are deemed to be active; conditions: 72 hours
Experimental: MV4-11 cells: 96-well plates were seeded with 5×10^4 cells per well of exponentially growing human AML MV-4-11 (CRL-9591) cells and immediately treated with two-fold dilutions of test compounds, ranging from 30 μM to 0.2 μM. Triplicate wells were used for each concentration, as well as a media only and three DMSO control wells. The cells and compounds were incubated at 37° C., 5% CO2 for 72 hours before adding 20 μL of the CellTiter Aqueous One Solution (Promega) to each well and incubating at 37° C., 5% CO2 for an additional 3-4 hours. The absorbance was taken at 490 nm in a spectrophotometer and the percentage of proliferation relative to DMSO-treated cells was calculated after correction from the blank well. IC50 were calculated using the GraphPad Prism software.

hApoA-1 mRNA = test: Up-regulation of hApoA-1 mRNA transcription in Huh7 cells; format: cell-based, human; parameters: key: Active: Compounds with an EC170 value less than 30 μM are deemed to be active.; Not Active: Compounds with an EC170 value less than 30 μM are deemed to be active; conditions: 48 hrs treatment, ApoA-I mRNA
Experimental: In this example, ApoA-I mRNA in tissue culture cells was quantitated to measure the transcriptional up-regulation of ApoA-I when treated with a compound of the present disclosure.
Huh7 cells ([…] per well) were plated in a 96-well plate using 100 μL DMEM per well, (Gibco DMEM supplemented with penicillin/streptomycin and 10% FBS), 24 h before the addition of the compound of interest. After 48 hrs treatment, the spent media was removed from the Huh-7 cells and placed on ice (for immediate use) or at −80° C. (for future use) with the “LDH cytotoxicity assay Kit II” from Abcam. The cells remaining in the plate were rinsed with 100 μL PBS.
Then 85 μL of cell lysis solution was added to each well and incubated for 5-10 minutes at room temperature, to allow for complete cell lysis and detachment. mRNA was then prepared using the “mRNA Catcher PLUS plate” from Life Technologies, according to the protocol supplied. After the last wash, as much wash buffer as possible was aspirated without allowing the wells to dry. Elution Buffer (E3, 80 μL) was then added to each well. mRNA was then eluted by incubating the mRNA Catcher PLUS plate with Elution Buffer for 5 minutes at 68° C., and then 1 minute at 4° C. Catcher plates with mRNA eluted were kept on ice for use or stored at −80° C.
The eluted mRNA isolated was then used in a one-step real-time PCR reaction, using components of the Ultra Sense Kit together with Life Technologies primer-probe mixes. Real-time PCR data was analyzed, using the Ct values, to determine the fold induction of each unknown sample, relative to the control (that is, relative to the control for each independent DMSO concentration).
Compounds with an EC170 value less than 30 μM are deemed to be active.

Structure (SMILES) | melting point | FRET activity (IC50 < 30 μM) (Brd4 bromodomain 1) | IL-6 activity (IC50 < 30 μM) (hIL-6 mRNA) | c-myc activity (IC50 < 30 μM) (c-myc) | cell proliferation activity (IC50 < 30 μM) (Human AML MV-4-11 cells) | ApoA-1 activity (EC170 < 30 μM) (hApoA-1 mRNA)
COc1cc(OC)c2c(=O)[nH]c(-c3ccc(OCCO)c(N4CCN(C(C)C)CC4)n3)nc2c1 (as salt: acetate) [Example 13, 2-(5-(2-Hydroxyethoxy)-6-(4-isopropylpiperazin-1-yl)pyridin-2-yl)-5,7-dimethoxyquinazolin-4(3H)-one acetate] | 138 to 139 °C |  |  |  |  | 
COc1cc(OC)c2c(=O)[nH]c(-c3ccc(OCCNC(C)C)c(N4CCN(C(C)C)CC4)n3)nc2c1 (as salt: trifluoroacetate) [Example 12, 2-(5-(2-(Isopropylamino)ethoxy)-6-(4-isopropylpiperazin-1-yl)pyridin-2-yl)-5,7-dimethoxyquinazolin-4(3H)-one bis(trifluoroacetate)] | 186 to 188 °C |  |  |  |  | 
COC(=O)CN1CCN(c2cccc(-c3nc4cc(OC)cc(OC)c4c(=O)[nH]3)n2)CC1 [Example 7, Methyl 2-(4-(6-(5,7-dimethoxy-4-oxo-3,4-dihydroquinazolin-2-yl)pyridin-2-yl)piperazin-1-yl)acetate] | 176 to 177 °C | Active | Active |  |  | 
COc1cc(OC)c2c(=O)[nH]c(-c3cccc(N4CCN(CC(=O)O)CC4)n3)nc2c1 [Example 10, 2-(4-(6-(5,7-Dimethoxy-4-oxo-3,4-dihydroquinazolin-2-yl)pyridin-2-yl)piperazin-1-yl)acetic acid] | 225 °C (dec.) | Active | Not Active |  |  | 
COc1cc(OC)c2c(=O)[nH]c(-c3ccc(OCCNC(C)C)c(N4CCN(C(C)C)CC4)n3)nc2c1 [Example 12, 2-(5-(2-(Isopropylamino)ethoxy)-6-(4-isopropylpiperazin-1-yl)pyridin-2-yl)-5,7-dimethoxyquinazolin-4(3H)-one bis(trifluoroacetate)] |  | Active | Not Active | Active | Active | Active
COc1cc(OC)c2c(=O)[nH]c(-c3ccc(OCCO)c(N4CCN(C(C)C)CC4)n3)nc2c1 [Example 13, 2-(5-(2-Hydroxyethoxy)-6-(4-isopropylpiperazin-1-yl)pyridin-2-yl)-5,7-dimethoxyquinazolin-4(3H)-one acetate] |  | Active | Active | Active | Not Active | Active
COc1cc(OC)c2c(=O)[nH]c(-c3cccc(N4CCN(C)CC4)n3)nc2c1 [Example 15, 5,7-Dimethoxy-2-(6-(4-methylpiperazin-1-yl)pyridin-2-yl)quinazolin-4(3H)-one Hydrochloride] |  | Active | Active | Active | Active | Active
CCC(=O)N1CCN(c2cccc(-c3nc4cc(OC)cc(OC)c4c(=O)[nH]3)n2)CC1 [Example 19, 5,7-Dimethoxy-2-(6-(4-propionylpiperazin-1-yl)pyridin-2-yl)quinazolin-4(3H)-one dihydrochloride] |  | Active | Not Active | Not Active | Not Active | Active
COc1cc(OC)c2c(=O)[nH]c(-c3cccc(N4CCC(N(C)C)CC4)n3)nc2c1 [Example 29, 2-(6-(4-(Dimethylamino)piperidin-1-yl)pyridin-2-yl)-5,7-dimethoxyquinazolin-4(3H)-one] |  | Active | Active | Active | Active | Active
COc1cc(OC)c2c(=O)[nH]c(-c3cc(Cl)cc(N4CCNCC4)c3)nc2c1 [Example 31, 2-(3-Chloro-5-(piperazin-1-yl)phenyl)-5,7-dimethoxyquinazolin-4(3H)-one] |  | Active | Active | Active | Active | Active
COc1cc(OC)c2c(=O)[nH]c(-c3cc(Cl)cc(N4CCN(C(C)C)CC4)c3)nc2c1 [Example 32, 2-(3-Chloro-5-(4-isopropylpiperazin-1-yl)phenyl)-5,7-dimethoxyquinazolin-4(3H)-one] |  | Active | Active | Active | Active | Active
